Measurements from patent publication EP1401829B1, “NOVEL HETEROCYCLIC ANTIBACTERIAL COMPOUNDS” (Microbiotix, Inc., priority 2001, dated 2002).
≈ marks a conversion by molar mass, not a printed value. Read-outs that look alike come from different tables or passages of the source.

How the values were obtained:
S.aureus (Smith) = assay: Minimal Inhibitory Concentration (MIC) determination, 96 well plates; type: cell-based, Staphylococcus aureus; conditions: Staphylococcus aureus
Summary of the method: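 Broth growth in Heart-Brain Infusion medium, seeded at about 1x10^5 CFU/ml, 16 to 18 hours at 37°C. Growth read at OD 600 nm as percent of untreated control; five concentrations per drug, five data points each, MIC reported in µg/ml.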

MRSA1132 = assay: MIC against clinically relevant strains; type: cell-based; conditions: Staphylococcus aureus; methicillin resistant S. aureus strain
Method: (§1) The following methods were used to characterize representative compounds. Minimal Inhibitory Concentration (MIC) determinations. MIC values were determined in 96 well plates, with bacterial growth monitored at OD 600 nm in 200µl following an initial bacterial seeding at approximately 1x10^5 colony forming units (CFU)/ml. Each drug is evaluated at five concentrations, with five data points at each dilution. MIC values (µg/ml) were determined against actively growing cultures in Heart-Brain Infusion (HBI) medium. Cell growth in cultures supplemented with a test compound was calculated as a percent of control at OD 600 nm after 16 to 18 hours at 37°C. This plate format conserves test compound and provides precise, quantitative data with low standard deviation determinations. Polymerase IIIC (Pol IIIC) assay. DNA polymerase activity (or inhibition thereof) was measured in a 96-well plate format. B. subtilis Pol IIIC was isolated as described by Hammond and Brown (Protein Expr. Purif., 3: 65-70 (1992)). Each 25 µl assay contained 30 mM Tris, pH 7.5, 10 mM magnesium acetate, 4 mM dithiothreitol, 20% glycerol, with 25 µM dATP, dCTP, dGTP and 10 µM dTTP (^3H-labelled at 1.44 Ci/mmole) and 0.4 mg/ml activated calf thymus DNA as substrates, as described previously (see Barnes et al, op. cit). Assays were initiated by the addition of 0.025 to 0.06 units of enzyme 1 unit is the amount required to incorporate 250 pmoles of [^3H] dTMP in a standard assay), incubated for 10 minutes at 30°C and terminated by the addition of 200 µl of cold 10% trichloroacetic acid (TCA),10 mM sodium pyrophosphate. Precipitated labeled DNA was collected on glass fiber filter plates, washed, dried, and counted in a liquid scintillation counter. Determination of Ki values. DNA polymerase activity was measured in a 96-well plate format in the absence of dGTP or dATP, depending on the structure of the test compound. Each 25 µl assay contained 30 mM Tris, pH 7.5, 10 mM magnesium acetate, 4 mM dithiothreitol, 20% glycerol, with 25 µM dATP, dCTP, and 10 µM dTTP (^3H-labelled at 1.44 Ci/mmole) and 0.4 mg/ml activated calf thymus DNA as substrates, as described previously. To each well were added 2 µl of compound solution to give final concentrations ranging from 20 - 0.027 µg/ml in the assay. Assays were initiated by the addition of 0.025 to 0.06 units of enzyme (1 unit is the amount required to incorporate 250 pmoles of [^3H] dTMP in a standard assay), incubated for 10 minutes at 30 °C and terminated by the addition of 200 µl of cold 10% trichloroacetic acid, 10 mM sodium pyrophosphate. Precipitated labeled DNA was collected on glass fiber filter plates, washed, dried, and counted in a liquid scintillation counter. Ki is the concentration of test compound that reduces the control polymerase IIIC activity by 50 percent.
(§2) Compounds were also tested for antibacterial activity against certain clinically relevant strains, e.g., methicillin sensitive (MSSA) and methicillin resistant (MRSA) strains of Staphylococcus aureus.

MRSA 1123 = assay: MIC against clinically relevant strains; type: cell-based; conditions: Staphylococcus aureus, methicillin resistant S. aureus strain
Method: as §1, §2

MRSA1094 = assay: MIC against clinically relevant strains; type: cell-based; conditions: Staphylococcus aureus; methicillin resistant S. aureus strain
Method: as §1, §2

S. aureus = assay: Minimal Inhibitory Concentration (MIC) determination, 96 well plates; type: cell-based, Staphylococcus aureus; conditions: Staphylococcus aureus, read-out: MIC (µg/ml) S. aureus
Summary of the method: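 Cultures seeded at approximately 1x10^5 CFU/ml in Heart-Brain Infusion medium were exposed to five compound concentrations, five data points each, for 16 to 18 hours at 37°C. Growth at OD 600 nm was expressed as percent of control, and MIC values are given in µg/ml.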

[1] = HBI medium, 16 to 18 hours at 37°C, read-out: MIC (µg/ml) S.aureus (Smith)
[2] = table of MSSA/MRSA strains, read-out: MIC (µg/ml) S. aureus (Smith)
[3] = HBI medium, 16 to 18 hours at 37°C

| Compound | MIC (S.aureus (Smith); [1]) [µg/mL] | MIC (S.aureus (Smith); [2]) [µg/mL] | MIC (MRSA1132) [µg/mL] | MIC (MRSA 1123) [µg/mL] | MIC (MRSA1094) [µg/mL] | MIC (S. aureus; [3]) [µg/mL] | MIC (S. aureus; table of MSSA/MRSA strains) [µg/mL] |
| --- | --- | --- | --- | --- | --- | --- | --- |
| CCc1cc(Nc2cc(=O)n(CCCCN3CCN(c4c(F)cc5c(=O)c(C(=O)O)cn(C6CC6)c5c4F)CC3C)c(=O)[nH]2)ccc1C (stereo not drawn) [Compound 70, 3-{4-[1-(1-cyclopropyl-3-carboxy-4-oxo-6,8-difluoro-7-quinolyl)-3-methyl-4-piperazinyl]butyl}-6-(3-ethyl-4-methylanilino)uracil] | 0.156 (≈ 0.235 µM) | 0.21 (≈ 0.317 µM) | 0.31 (≈ 0.468 µM) | 0.94 (≈ 1.42 µM) | 0.94 (≈ 1.42 µM) | 0.313 (≈ 0.472 µM) | 0.39 (≈ 0.588 µM) |
| CCc1cc(Nc2cc(=O)n(CCCCN3CCN(c4cc5c(cc4F)c(=O)c(C(=O)O)cn5C4CC4)CC3)c(=O)[nH]2)ccc1C [Compound 2, 3-{4-[1-(1-cyclopropyl-3-carboxy-4-oxo-6-fluoro-7-quinolyl)-4-piperazinyl]butyl}-6-(3-ethyl-4-methylanilino)uracil] | 0.313 (≈ 0.496 µM) | 0.313 (≈ 0.496 µM) | 0.625 (≈ 0.991 µM) | 0.625 (≈ 0.991 µM) | 0.625 (≈ 0.991 µM) | 0.625 (≈ 0.991 µM) | 0.625 (≈ 0.991 µM) |
| CCc1cc(Nc2cc(=O)n(CCCCN3CCN(c4cc5c(cc4F)c(=O)c(C(=O)O)cn5C4CC4)CC3)c(=O)[nH]2)ccc1C.CS(=O)(=O)O [Compound 10, 3-{4-[1-(1-cyclopropyl-3-carboxy-4-oxo-6-fluoro-7-quinolyl)-4-piperazinyl]butyl}-6-(3-ethyl-4-methylanilino)uracil methanesulfonate] | 0.625 | 0.625 | 0.625 | 1.25 | 1.25 | 0.625 | 0.625 |
